Results: patent publication US12162884B2, “Solid forms of (R)-N-(2-(5-fluoropyridin-3-yl)-8-isopropylpyrazolo[1,5-a] [1,3,5]triazin-4-yl)-2,3,4,9-tetrahydro-1H-carbazol-3-amine as aryl hydrocarbon receptor (AHR) inhibitors” (Ikena Oncology, Inc., priority 2019, dated 2024)
In brackets after ≈: the same amount, converted by molar mass. Marks after values point to notes of the source that are not given here.

Experiments:
[1] = Stability studies at 40° C./75% RH (HPLC); type: physicochemical; conditions: for stability / degradation over time: Time 0, 1 week, 2 weeks, 4 weeks
Procedure: Stability studies of compound A, Form B, Compound 1, Form B, Compound 2, Form A, Compound 3, Form B, and Compound 4, Form A was carried out at 40° C./75% RH. Samples were stored in loosely capped vials in a chamber containing a saturated NaCl solution to achieve approximately 75% RH within the chamber. The chamber was stored in a 40° C. oven. Samples were analyzed at Time 0, 1 week, 2 weeks, and 4 weeks using the HPLC parameters described above in Table 13.

[2] = Solubility studies in water, FaSSIF, FeSSIF and FaSSGF (excess solids in 5 mL medium at 37° C., HPLC; pH, XRPD and NMR of remaining material); type: physicochemical; conditions: for solubility at 30 min / solubility at 120 min / solubility at 24 h: 37 °C, thermodynamic from solid; for pH: pH of solubility sample; for Solubility / solubility at 24 hours in FeSSIF: 37° C.; for solubility at 24 hours in FeSSIF: comparison among the tested forms
Procedure: Simulated fluids were sourced from and prepared according to biorelevant.com using their FaSSIF/FeSSIF/FaSSGF Powder (v1, formerly known as SIF Powder). Samples were prepared by adding excess solids to 5 mL of medium at 37° C. Samples were pulled and filtered at 30 minutes, 120 minutes, and 24 hours and tested for solution concentration using the HPLC parameters described below in Table 13.
The pH of the samples at each timepoint was also measured; pH paper was used at 30 minutes and 120 minutes due to the small sample size, and a pH meter was used at 24 hours. The remaining material from all trials was analyzed by XRPD after 24 hours to determine if any polymorphic form changes had taken place. The remaining material from trials in water was analyzed by NMR after 24 hours to determine if disassociation had taken place.

[3] = FaSSGF, fassgf or other biorelevant, 30 minutes
[4] = FaSSGF, fassgf or other biorelevant, 120 minutes
[5] = FaSSGF, fassgf or other biorelevant, 24 hours

| Structure (SMILES) | % Area ([1]; 1 Week, HPLC) [% Area] | % Area ([1]; 2 Weeks, HPLC) [% Area] | % Area ([1]; 4 Weeks, HPLC) [% Area] | stability / degradation over time ([1]; HPLC) | % Area ([1]; Time 0, HPLC) [% Area] | solubility at 30 min [2, 3] [µg/mL] | solubility at 120 min [2, 4] [µg/mL] | solubility at 24 h [2, 5] [µg/mL] | pH ([2]; FaSSGF, 30 minutes, pH paper) | pH ([2]; FaSSGF, 120 minutes, pH paper) | pH ([2]; FaSSGF, 24 hours, pH meter) | pH ([2]; FaSSIF, 30 minutes, pH paper) | pH ([2]; FaSSIF, 120 minutes, pH paper) | pH ([2]; FaSSIF, 24 hours, pH meter) | pH ([2]; FeSSIF, 30 minutes, pH paper) | pH ([2]; FeSSIF, 120 minutes, pH paper) | pH ([2]; FeSSIF, 24 hours, pH meter) | pH ([2]; Water, 30 minutes, pH paper) | pH ([2]; Water, 120 minutes, pH paper) | pH ([2]; Water, 24 hours, pH meter) | other results |
| --- | --- | --- | --- | --- | --- | --- | --- | --- | --- | --- | --- | --- | --- | --- | --- | --- | --- | --- | --- | --- | --- |
| CC(C)c1cnn2c(N[C@@H]3CCc4[nH]c5ccccc5c4C3)nc(-c3cncc(F)c3)nc12.CCS(=O)(=O)O [Compound 1 Form B] | 99.59 | 99.53 | 99.46 | equally stable | 99.90 | < 0.1 | < 0.1 | < 0.1 | 1.5 | 1.5 | 1.2 | 6 | 6 | 6.2 | 5 | 5 | 4.8 | 4.5 | 4.5 | 3.4 | solubility at 30 min ([2]; FaSSIF, 30 minutes): 45 µg/mL; solubility at 120 min ([2]; FaSSIF, 120 minutes): 34 µg/mL; solubility at 24 h ([2]; FaSSIF, 24 hours): 18 µg/mL; solubility at 30 min ([2]; FeSSIF, 30 minutes): 58 µg/mL; solubility at 120 min ([2]; FeSSIF, 120 minutes): 56 µg/mL; solubility at 24 h ([2]; FeSSIF, 24 hours): 63 µg/mL; solubility at 30 min ([2]; water, 30 minutes): < 0.1 µg/mL; solubility at 120 min ([2]; water, 120 minutes): < 0.1 µg/mL; solubility at 24 h ([2]; water, 24 hours): < 0.1 µg/mL |
| CC(C)c1cnn2c(N[C@@H]3CCc4[nH]c5ccccc5c4C3)nc(-c3cncc(F)c3)nc12 [Compound 2 Form A] | 99.20 | 98.30 | 98.58 | fairly stable | 99.87 | < 0.1 | < 0.1 | < 0.1 | – | – | 1.2 | 6 | 6 | 5.0 | 5 | 5 | 4.7 | 3.5 | 4 | 2.9 | loss of area over four weeks ([1]; four weeks, HPLC): ~1.5 % area; Solubility ([2]; FaSSIF, 30 minutes): 78 µg/mL (≈ 177 µM); Solubility ([2]; FaSSIF, 120 minutes): 40 µg/mL (≈ 90.6 µM); Solubility ([2]; FaSSIF, 24 hours): 14 µg/mL (≈ 31.7 µM); Solubility ([2]; FeSSIF, 30 minutes): 58 µg/mL (≈ 131 µM); Solubility ([2]; FeSSIF, 120 minutes): 160 µg/mL (≈ 362 µM); Solubility ([2]; FeSSIF, 24 hours): 120 µg/mL (≈ 272 µM); solubility at 24 hours in FeSSIF ([2]; FeSSIF, 24 hours): highest solubility; solubility at 30 min ([2]; water, 30 minutes): < 0.1 µg/mL; solubility at 120 min ([2]; water, 120 minutes): < 0.1 µg/mL; solubility at 24 h ([2]; water, 24 hours): < 0.1 µg/mL |
| CC(C)c1cnn2c(N[C@@H]3CCc4[nH]c5ccccc5c4C3)nc(-c3cncc(F)c3)nc12.CS(=O)(=O)O [Compound 3 Form B] | 91.60 | 69.61 | 16.23 | significant degradation was observed over time | 99.88 | < 0.1 | < 0.1 | < 0.1 | 1.5 | 1.5 | 1.2 | 6 | 6 | 5.7 | 5 | 5 | 4.4 | 4 | 4 | 2.4 | solid state of the solids at the end of the study ([1]; end of the study): lost all crystallinity and became x-ray amorphous; solubility at 30 min ([2]; FaSSIF, 30 minutes): 65 µg/mL; solubility at 120 min ([2]; FaSSIF, 120 minutes): 34 µg/mL; solubility at 24 h ([2]; FaSSIF, 24 hours): 16 µg/mL; solubility at 24 hours in FeSSIF ([2]; FeSSIF, 24 hours): highest solubility; solubility at 30 min ([2]; FeSSIF, 30 minutes): 27 µg/mL; solubility at 120 min ([2]; FeSSIF, 120 minutes): 43 µg/mL; solubility at 24 h ([2]; FeSSIF, 24 hours): 160 µg/mL; solubility at 30 min ([2]; water, 30 minutes): < 0.1 µg/mL; solubility at 120 min ([2]; water, 120 minutes): < 0.1 µg/mL; solubility at 24 h ([2]; water, 24 hours): < 0.1 µg/mL |
| CC(C)c1cnn2c(N[C@@H]3CCc4[nH]c5ccccc5c4C3)nc(-c3cncc(F)c3)nc12 [Compound 4 Form A] | 94.31 | 94.20 | 99.37 | exhibited degradation at 1 and 2 weeks, but the degradant peaks were no longer present at 4 weeks | 99.77 | – | – | – | 1.5 | 1.5 | 1.1 | 6 | 5.5 | 1.9 | 5 | 4.5 | 4.4 | 4.5 | 3 | 1.5 | Solubility ([2]; FaSSGF, 30 minutes): <0.1 µg/mL; Solubility ([2]; FaSSGF, 120 minutes): <0.1 µg/mL; Solubility ([2]; FaSSGF, 24 hours): <0.1 µg/mL; Solubility ([2]; FaSSIF, 30 minutes): 71 µg/mL (≈ 161 µM); Solubility ([2]; FaSSIF, 120 minutes): 38 µg/mL (≈ 86.1 µM); Solubility ([2]; FaSSIF, 24 hours): 25 µg/mL (≈ 56.6 µM); Solubility ([2]; FeSSIF, 30 minutes): 48 µg/mL (≈ 109 µM); Solubility ([2]; FeSSIF, 120 minutes): 110 µg/mL (≈ 249 µM); Solubility ([2]; FeSSIF, 24 hours): 33 µg/mL (≈ 74.7 µM); Solubility ([2]; Water, 30 minutes): <0.1 µg/mL; Solubility ([2]; Water, 120 minutes): <0.1 µg/mL; Solubility ([2]; Water, 24 hours): <0.1 µg/mL |
| CC(C)c1cnn2c(N[C@@H]3CCc4[nH]c5ccccc5c4C3)nc(-c3cncc(F)c3)nc12 [Compound A Form B, (3R)—N-[2-(5-fluoro-3-pyridyl)-8-isopropyl-pyrazolo[1,5-a][1,3,5]triazin-4-yl]-2,3,4,9-tetrahydro-1H-carbazol-3-amine] | 99.22 | 99.05 | 99.58 | equally stable | – | – | – | – | – | – | – | 6 | 6 | 6.4 | 5 | 5 | 4.8 | – | 4.5 | 7.7 | % Area ([1]; Time 0, HPLC, 1 mg/mL): 99.62* % Area; Solubility ([2]; FaSSGF, 30 minutes): <0.1 µg/mL; Solubility ([2]; FaSSGF, 120 minutes): <0.1 µg/mL; Solubility ([2]; FaSSGF, 24 hours): <0.1 µg/mL; Solubility ([2]; FaSSIF, 30 minutes): 4.9 µg/mL (≈ 11.1 µM); Solubility ([2]; FaSSIF, 120 minutes): 11 µg/mL (≈ 24.9 µM); Solubility ([2]; FaSSIF, 24 hours): 9.5 µg/mL (≈ 21.5 µM); Solubility ([2]; FeSSIF, 30 minutes): <0.1 µg/mL; Solubility ([2]; FeSSIF, 120 minutes): 27 µg/mL (≈ 61.2 µM); Solubility ([2]; FeSSIF, 24 hours): 21 µg/mL (≈ 47.6 µM); Solubility ([2]; Water, 30 minutes): <0.1 µg/mL; Solubility ([2]; Water, 120 minutes): <0.1 µg/mL; Solubility ([2]; Water, 24 hours): <0.1 µg/mL |
